Test results published in US20240360145A1, “PYRIMIDINE-2,4-DIAMINE DERIVATIVES AS WELL AS PREPARATION METHOD THEREFOR AND USE THEREOF” (LISEN THERAPEUTICS, INC., priority 2022, published 2024).

Key:
[1] = tested on: NCI-H1792 cells; experiment: Cell viability IC50 (MTT), AMG510-resistant NCI-H1792 cells; format: cell-based; conditions: Homo sapiens, NCI-H1792 cells (KRAS G12C)
Protocol: Non-small cell lung cancer cell lines NCI-H1975, NCI-H1650, and NCI-H1792 were cultured in RPMI-1640 medium containing 10% fetal bovine serum and 1% penicillin-streptomycin. 1% sodium pyruvate was additionally added when culturing NCI-H1975 cells. All the cells were cultured in a constant temperature incubator containing 5% CO2 at 37° C.
(1) The cells were cultured to the logarithmic growth phase. When the confluence reached about 90%, the cells were digested with 0.25% trypsin, and complete medium was added to collect the cells. After centrifugation at room temperature, the supernatant was discarded, and the cell precipitate was resuspended with fresh complete medium. […]
(5) The medium was carefully aspirated off, 100 μl of DMSO was added to dissolve the precipitate formed by the reaction with MTT, shaking and mixing to mix the blue-violet crystals well, and the light absorbance value at 492 nm was read with a microplate reader.
(6) IC50 of the compounds for different cells was calculated based on the light absorption value of each group. Specifically, the absorbance value under treatment with different concentrations of compounds was first subtracted from the absorbance value of the blank well, and then the absorbance value of the 0 μM group was taken as 100% to calculate the cell survival rate after treatment with different concentrations of compounds. […]

[2] = tested on: HCT116 (colon cancer); experiment: Cell viability IC50 (CellTiter-Glo), HCT116; format: cell-based; conditions: Homo sapiens, HCT-116, HCT116, 72 hours
Protocol: (§1) The cancer cell lines were cultured to the logarithmic growth phase according to conventional culture methods, and the cells were inoculated into a 384-well plate at a density of 2,000 cells/well in a volume of 40 μl/well. The concentrations of added compounds were: […], 1.67 μM, 0.56 μM, 0.19 μM, 0.062 μM, 0.021 μM, 0.0069 μM, 0.0023 μM, 0.00076 μM, and 0 μM. After 72 hours, cell viability was detected using the CellTiter-Glo™ Detection Kit.

[3] = tested on: Hep3B (liver cancer); experiment: Cell viability IC50 (CellTiter-Glo), Hep3B; format: cell-based; conditions: Homo sapiens, 72 hours
Protocol: as §1

[4] = tested on: MiaPaca-2 (pancreatic cancer); experiment: Cell viability IC50 (CellTiter-Glo), MiaPaca-2; format: cell-based; conditions: Homo sapiens, MIA PaCa-2, MiaPaca-2, 72 hours
Protocol: as §1

[5] = tested on: NCI-H1650 cells; experiment: Cell viability IC50 (MTT), Gefitinib- and Osimertinib-resistant NCI-H1650 cells; conditions: Homo sapiens, NCI-H1650, 72 h, read-out: cell viability IC50
Protocol: (1) The cells were cultured to the logarithmic growth phase. […] After centrifugation at room temperature, the supernatant was discarded, and the cell precipitate was resuspended with fresh complete medium. After counting, the cells were placed at room temperature for later use.
(2) The cells were inoculated into a 96-well plate at a density of 4,000 cells/well with a volume of 100 μl/well. The wells at the outermost circle of the plate were not inoculated with cells, and instead, added with sterile water to reduce evaporation of the culture medium.
(3) After overnight culture of the cells, the medium was discarded, and a fresh medium containing different concentrations of compounds was added at 200 μl/well. The dilution method of the compound was as follows: first the compound with the highest concentration of 10 μM was prepared, and then the compound was diluted for 3 times in sequence. […] At the same time, a blank control group was set up, in which only an equal volume of culture medium was added without adding cells. Six replicate wells were set up for each group. The cells were placed in the incubator for further culture.
(4) After 72 hours, 20 μl of MTT solution (5 mg/ml) sterilized by filtration through a 0.22 m filter membrane was added to each well, and the cells were cultured in an incubator at 37° C. for another 4 hours.
(6) IC50 of the compounds for different cells was calculated based on the light absorption value of each group. Specifically, the absorbance value under treatment with different concentrations of compounds was first subtracted from the absorbance value of the blank well, and then the absorbance value of the 0 μM group was taken as 100% to calculate the cell survival rate after treatment with different concentrations of compounds. That is, survival rate=((ODexperimental well−ODblank control)/(ODnegative control−ODblank control))×100%. IC50 values were calculated based on the survival rate and concentration of the compound.

[6] = tested on: PE043 primary cells; experiment: Cell viability IC50 (CCK-8), primary cells PE043 from lung adenocarcinoma pleural effusion resistant to EGFR-TKI; conditions: read-out: cell viability IC50
Protocol: (1) The pleural effusion was poured into a 15 mL or 50 mL of sterilized centrifuge tube for centrifugation. Centrifugation conditions: 800 to 1000 rpm, 5 min.
(2) The precipitate was resuspended and washed for 2 to 3 times with PBS.
(3) The cell precipitate was resuspended with complete culture medium (α-MEM medium containing 10% fetal bovine serum and 2% penicillin-streptomycin), and the flocculent matter in the pleural effusion was removed using a sterilized cell sieve.
(4) The red blood cells in the pleural effusion were removed with lymphocyte separation fluid, and the tumor cells and lymphocyte components were collected. The number of tumor cells was observed under a microscope, and the cells were inoculated.
(5) After 24 hours, the supernatant was discarded, and fresh culture medium was added for further culture.
(6) The cell growth status was observed, and it was determined based on the cell status whether the medium was required to be continuously changed to remove blood cells. When the cells grew to a density of 80% to 90%, the cells were preserved.
(1) Primary cells from lung cancer pleural effusion within 5 generations were cultured to the logarithmic growth phase. […] After centrifugation at room temperature, the supernatant was discarded, and the cell precipitate was resuspended with fresh complete culture medium. After counting, the cells were placed at room temperature for later use. The cells were inoculated into a 384-well plate at a density of 2000 cells/well with a volume of 40 μl/well. The wells at the outermost circle of the plate were not inoculated with cells, and instead, added with sterile water to reduce evaporation of the culture medium.
(2) After overnight culture of the cells, the medium was discarded, and a fresh medium containing different concentrations of compounds was added at 200 μl/well. The dilution method of the compound was as follows: first the compound with the highest concentration of 10 μM was prepared, and then the compound was diluted for 3 times in sequence. […] At the same time, a blank control group was set up, in which only an equal volume of culture medium was added without adding cells. Five replicate wells were set up for each group. The cells were placed in the incubator for further culture.
(3) After 72 hours, 8 μl of CCK-8 solution, which was double-diluted with 10 mM PBS, was added to each well, and the cells were shaken and placed in an incubator at 37° C. for further culture for 2 hours.
(4) The light absorbance value at 450 nm was read using a microplate reader, and the IC50 was calculated according to the absorbance value.

`CN1CC2CCC(C1)N2Cc1ccc(Nc2ncc(Cl)c(Nc3ccccc3S(=O)(=O)N(C)C)n2)cc1` [Compound 8, 2-((5-chloro-2-((4-((3-methyl-3,8-diazabicyclo[3.2.1]octan-8-yl)methyl)phenyl)amino)pyrimidin-4-yl)amino)-N,N-dimethylbenzenesulfonamide] was tested, and the IC50 [1] was 40.6 nM, the IC50 [2] was 9 nM and the IC50 [3] was 185 nM. For the same compound, the IC50 [4] was 13.2 nM, the IC50 [5] was 83.6 nM and the IC50 [6] was 34.6 nM.
